Experimental data from patent EP4582094A1, “ISCHEMIA-REPERFUSION INJURY INHIBITOR” (Tohoku University, priority 2022, dated 2024).

Legend:
[1] = Mouse lung ischemia-reperfusion injury (pulmonary hilum clamping): physiological and histopathological evaluation of pulmonary edema; type: in vivo, C57BL/6J mice
Experimental: GSSSG (MW 644) was dissolved in 0.1 M HCl to 25 mM GSSSG. Next, 20 µL of 25 mM GSSSG was added to 50 µL of 10x PBS and 430 µL of DW, and thus 500 µL of GSSSG solution (1 mM, 322 µg GSSSG) was adjusted in the end.
(§1) An intervention group (N = 4) in which 500 µL of the GSSSG solution was intraperitoneally administered to C57BL/6J mice (22 months old, male) an hour before pulmonary hilum clamping surgery and a control group (N = 4) in which 500 µL of normal saline solution (NSS) was intraperitoneally administered were set. The pulmonary hilum structure was clamped together for 60 minutes, and the IRI was evaluated an hour and a day after releasing clamping.
The wet to dry weight ratios were measured as physiological evaluation of pulmonary edema due to the IRI (N = 4 in each group).
The alveolar edema was scored, and the edema around the pulmonary arteries was quantified as histopathological evaluation of pulmonary edema due to the IRI (N = 6 in each group). The scoring was conducted according to the criteria below, and an average of 10 fields was calculated for each mouse. Regarding the edema around the pulmonary arteries, three to five pulmonary arteries per mouse were extracted, and an average of the area ratios of the pulmonary artery and the edema around the artery was calculated.
• 0 = no finding • 1 = finding in 1-25% • 2 = finding in 26-50% • 3 = finding in 51-75% • 4 = finding in 76-100%

TNFα = experiment: RT-PCR gene expression of inflammatory cytokines in lung tissue after IRI; type: in vivo, C57BL/6J mice; conditions: lung tissue after the IRI; GSSSG administration group vs control; FIG. 2
Experimental: as §1
(§2) The inflammation due to the IRI was evaluated with gene expression of inflammatory cytokines in lung tissue. The wet to dry weight ratios were evaluated with N = 4 in each group, and the other items were evaluated with N = 5-6 in each group.

IL10 = experiment: as above; type: in vivo, C57BL/6J mice; conditions: lung tissue after the IRI; GSSSG administration group vs control; FIG. 2
Experimental: as §1, §2

IL6 = experiment: as above; type: in vivo, C57BL/6J mice; conditions: lung tissue after the IRI; GSSSG administration group vs control; FIG. 2
Experimental: as §1, §2

IL1b = experiment: as above; type: in vivo, C57BL/6J mice; conditions: lung tissue after the IRI; GSSSG administration group vs control; FIG. 2
Experimental: as §1, §2

HeLa cells = experiment: Mitochondrial membrane potential, JC-10 staining; type: cell-based; conditions: GSSSG added to medium at 1 µM, 10 µM and 100 µM; 24 hours; even at a low concentration; FIG. 3
Experimental: HeLa cells were cultured in DMEM (low glucose) medium containing 10% FBS, and GSSSG was added to the medium at different concentrations (1 µM, 10 µM and 100 µM). The cells were stained with JC-10, which is a reagent for detecting mitochondrial membrane potential, after 24 hours and observed with a confocal microscope, and the fluorescent intensities were measured with a plate reader.

[2] = Rat isogeneic lung transplantation: ischemia-reperfusion injury after lung preservation; type: in vivo, Lewis rats; conditions: lung preservation solution containing 300 µM GSSSG, six hours at 4°C, an hour after the reperfusion, vs control group
Experimental: In the GSSSG group (n=3), ET-TU solution containing GSSSG was used as the lung preservation solution. The GSSSG concentration was 300 µM, at which GSSSG could be mixed into EP-TU while maintaining pH 7 in a preliminary experiment. In the control group (n=3), ET-TU solution was used as it was as the lung preservation solution. As the rats, Lewis rats (male, 13-18 weeks, 275-350 g) were used both as the donors and the recipients.
The left lung of a donor was preserved for six hours at 4°C using the lung preservation solution (EP-TU) and transplanted into the left lung of a recipient rat. After reperfusion for an hour after the lung transplantation, the right pulmonary hilum (pulmonary artery and vein/bronchus) was blocked, and the degree of ischemia-reperfusion injury of the left lung was evaluated. As indicators for ischemia-reperfusion injury, the weight gain of the grafted lung (weight after transplantation - weight before transplantation) and the arterial oxygen tension (PaO2) after blocking the right pulmonary hilum were used.

## N[C@@H](CCC(=O)N[C@@H](CSSSC[C@H](NC(=O)CC[C@H](N)C(=O)O)C(=O)NCC(=O)O)C(=O)NCC(=O)O)C(=O)O [GSSSG, glutathione trisulfide]
[1]; 500 µL GSSSG solution (1 mM) intraperitoneally an hour before clamping, area ratio of pulmonary artery and edema around it, vs control group, FIG. 1c
  edema around the pulmonary arteries: relief of pulmonary edema was observed
[1]; 500 µL GSSSG solution (1 mM) intraperitoneally an hour before clamping, histopathological evaluation, vs control group, FIG. 1b
  score of alveolar edema: relief of pulmonary edema was observed
[1]; 500 µL GSSSG solution (1 mM, 322 µg) intraperitoneally an hour before 60 min pulmonary hilum clamping, 22 months old male mice, an hour and a day after the IRI, vs control group (NSS), FIG. 1a
  wet to dry weight ratio: decreased with a significance
TNFα
  gene expression of TNFα: no difference was observed
IL10
  gene expression of IL10: decreased with a significance
IL6
  gene expression of IL6: decreased with a significance
IL1b
  gene expression of IL1b: no difference was observed
HeLa cells
  mitochondrial membrane potential: increased with a significance
[2]; FIG. 10A
  arterial oxygen tension (PaO2) after blocking the right pulmonary hilum: improved
[2]; FIG. 10B
  weight gain of the grafted lung: decreased
